Assay: Quantification of KD87 in plasma of mice after intraperitoneal injection
Format: in vivo
Conditions: male, NSG (NOD.Cg-Prkdc^scid Il2rg^tm1Wjl/SzJ), mouse, ip, 20 mg/kg, 20 mg/kg intraperitoneal, mean ± SD n = 8
Description: To apply the method validated for plasma, an animal experiment was performed in which KD87 (20 mg/kg body weight) was injected intraperitoneally into NOD.Cg-Prkdc^scid Il2rg^tm1Wjl/SzJ (NSG) mice followed by determination of the plasma concentration of KD87 at two fixed time points, i.e., 30 and 60 min, after administration. For this initial investigation, KD87 was selected because it has shown viability-reducing effects on a large panel of tumor cells both in the present study and in a previous study, making it a good candidate for future in vivo experiments.
Before starting plasma extraction and protein precipitation, 10 µL of the sample plasma was mixed with 40 µL of human plasma. After appropriate sample preparation by protein precipitation or liquid-liquid extraction, KD87 was successfully detected and quantified by LC-MS/MS. Here, for each blood draw, two separate plasma aliquots were extracted or precipitated and subsequently measured. In addition, the MRM transitions of the aglycone KD88 were monitored during the measurement to observe possible deglycosylation of KD87. […] Individual concentrations are presented for each mouse separately (Figure 5A,B) and as averages of the four treated mice (Figure 5C). For protein precipitation, a concentration of 1.89 ± 0.30 µM was determined 30 min after intraperitoneal injection, increasing to 2.93 ± 0.36 µM after 60 min (Figure 5C). Similar values are obtained after liquid-liquid extraction of plasma sample, which yielded a concentration of 2.19 ± 0.32 µM and 3.46 ± 0.50 µM after 30 and 60 min, respectively (Figure 5C).
Figure 5 Quantification of KD87 in plasma of mice 30 and 60 min after intraperitoneal injection of KD87 (20 mg/kg body weight). Prior to sample processing, mouse plasma was diluted 1:5 with human plasma. Shown are the individual values of KD87 in mouse plasma (A) after protein precipitation and (B) after liquid-liquid extraction, as well as (C) the average KD87 concentration values of all four mice for both processing methods. (A,B): The values of two separately processed plasma aliquots of one blood sample per mouse are shown. (C): The bar chart summarizes the results of measurements from panels (A,B), expressed as mean ± standard deviation (SD) of n = 8 values per column.
For experiments, four 13-week-old male NSG mice with a body weight between 20 and 30 g were used. KD87 was administered via intraperitoneal injection at a dose of 20 mg/kg body weight. For this purpose, KD87 was dissolved in ethanol and Cremophore EL (1:1) to a concentration of 6 mg/mL, and diluted further in sterile saline solution (NaCl 0.9%, B. Braun Melsungen AG, Melsungen, Germany) to a final concentration of 2 mg/mL. Per mouse, a total volume of 10 mL/kg of body weight was administered. […]

concentration at 30 min (liquid-liquid extraction): 2.19 ± 0.32 µM
concentration at 30 min (protein precipitation): 1.89 ± 0.3 µM
concentration at 60 min (liquid-liquid extraction): 3.46 ± 0.5 µM
concentration at 60 min (protein precipitation): 2.93 ± 0.36 µM
SMILES: O=C1/C(=C2/C(=O)N([C@@H]3O[C@H](CO)[C@@H](O)[C@H](O)[C@H]3O)c3ccccc32)Sc2ccccc21 [KD87, 3-[3′-oxo-benzo[b]thiophen-2′-(Z)-ylidene]-1-(β-D-glucopyranosyl)-oxindole]
